What was measured:
human CD23+ macrophages [1] = assay: Cell mortality and apoptosis with p30A versus medium alone; type: cell-based
[2] = system: rat peritoneal macrophages; assay: NO generation by IgE/DNP-activated rat peritoneal macrophages; type: cell-based
Description: Figure 6 Inhibition of in vitro and in vivo inflammatory responses in rats by p30A peptide. (A) Rat peritoneal macrophages were activated via CD23 antigens with/without p30A, L-NIL or pCtl. Cell supernatants were collected 48 h later and nitrite levels were quantified. Values are mean±s.d. of cells from 3 different rats. (B) Cumulative clinical score/rat obtained following 50 days post-immunization in all groups. AIA rats were treated either after or before (d0) the onset of symptoms. Treatment consisted of p30A, hydrocortisone (HC, 30 mg/rat)) or pCtl (100 mg/rat). Shown are means of cumulative score/rat±s.d. from 5 (HC) or 8 rats (other conditions). (C) Evolution of arthritis severity scores of adjuvant-induced arthritis (AIA) in rats treated with intracutaneous p30A or pCtl (100 mg/rat) or hydrocortisone (after the onset of clinical signs as illustrated by arrows (means from 8 rats, s.e.m.<20%). (D) Histopathologic analysis confirm p30A ability to decrease all components of AIA lesions: pannus formation and inflammation of the synovium (P), deformity of joint and bones (asterix), bone remodeling and destruction (arrowhead), bone neoformation (arrows) and cartilage destruction.
Culture supernatants (72 h) were assayed for the stable end-product of NO, NO2 ^− using the Griess reaction modified as detailed elsewhere. […]

[3] = system: RA patients derived monocytes/macrophages; assay: Inflammatory mediator release from rheumatoid arthritis patients' monocytes/macrophages; type: cell-based, human; settings: peripheral and synovial fluid monocytes/macrophages of 7 RA patients; 1 h pre-incubation, CD23 activation; 72 h
Source text: Figure 5 p30A inhibits the production of CD23-dependent inflammatory mediator release in cells from rheumatoid arthritis (RA) patients. (A) PBL and synovial monocytes/macrophages from RA patients were labeled with anti-CD23-FITC or isotype-matched (Iso) McAb and compared to healthy PBL. Representative fluorescence intensity data obtained from one case, out of 11 distinct patients or healthy individuals. (B) Inhibition of inflammatory mediator release from RA patients derived monocytes/macrophages. PBL monocytes or macrophages collected from synovial liquid were activated through CD23 after 1 h pre-incubation with/without p30A or pCtl. Cell supernatants were collected 72 h later and nitrites, TNF-α and IL-6 were quantified. Values are expressed as mean±s.e.m from 7 patients' cells.
Peripheral blood samples pre-tested for the absence of HIV or hepatitis virus infections were obtained from healthy volunteers (EFS Aquitaine, Bordeaux Blood Bank). We also collected paired peripheral blood and synovial fluid from seven patients, who fulfilled the American College of Rheumatology criteria for RA, during arthritic crisis. Written informed consent was obtained from all the patients. This study was carried out in compliance with the Helsinski Declaration and was approved by the National Ethical Authorities. All seven patients had previously received conventional therapy but none has been given TNF blocker or any other biologic treatment for their condition. […]
Monocytes or macrophages were activated through CD23 pathway: while monocytes/macrophages from RA patients express CD23, monocytes from healthy donors must be pre-activated to express surface CD23 as described. […] Cells supernatants were then analyzed for their nitric oxide content (see below) and for the presence of cytokines: levels of TNF-α and IL-6 were determined in duplicates for each sample by a specific ELISA (R&D, Paris, France) while levels of IL-1β, IL-8 and IL-10 was determined using FlowCytomix Human Th1/Th2 Kit as recommended (Bender Medsystems, Vienna, Austria). […]

human CD23+ macrophages [4] = assay: IgE-mediated activation of human CD23+ macrophages; type: cell-based
Description: Monocytes or macrophages were activated through CD23 pathway: while monocytes/macrophages from RA patients express CD23, monocytes from healthy donors must be pre-activated to express surface CD23 as described. This pre-activation was obtained by incubation of healthy monocytes with recombinant human IL-4 (20 ng/ml) during 48 h at 37°C; After washing, all cell populations were tested by flow cytometry for their surface CD23 expression (>80% CD23^+) and then incubated in the presence of cross-linking CD23-MAb (clones 135 or DM2, IgG1k, 20 µg/ml) during 48–72 h, or IgE and anti-IgE as described, [17]. When indicated, peptides were added to the cells 2 h prior to their activation. Cells supernatants were then analyzed for their nitric oxide content (see below) and for the presence of cytokines: levels of TNF-α and IL-6 were determined in duplicates for each sample by a specific ELISA (R&D, Paris, France) while levels of IL-1β, IL-8 and IL-10 was determined using FlowCytomix Human Th1/Th2 Kit as recommended (Bender Medsystems, Vienna, Austria).

Substance: FHENWPS [p30A]
- cell mortality and apoptosis (human CD23+ macrophages [1]; in the presence of p30A compared to cells in medium alone, no significant variations): < 5%
- cell toxicity (human CD23+ macrophages [1]; monocytes/macrophages): without cell toxicity
- reversal of IgE/DNP activation ([2]; rat macrophages ex-vivo): able to reverse the IgE/DNP activation of rat macrophages ex-vivo
- CD23-mediated induction of NO generation ([2]; rat peritoneal macrophages, IgE/DNP, peptide 1 h prior, supernatants at 48 h, 3 rats): significant decrease in CD23-mediated induction of NO generation
- IL-6 release [3]: reversed inflammatory mediators at the same levels than control cell-supernatants
- TNF-α release [3]: reversed inflammatory mediators at the same levels than control cell-supernatants
- nitric oxide (nitrites) release [3]: reversed inflammatory mediators at the same levels than control cell-supernatants
- IgE-mediated activation of human CD23+ macrophages (human CD23+ macrophages [4]): decreased IgE-mediated activation of both human and rat CD23^+ macrophages
